Our source for the Classification and Kd values is patent publication US20050282743A1, “Molecular interactions in cells” (Arbor Vita Corporation, priority 2001, published 2005).

Common to all, as to assay type: binding
Assay [1] concerns the target T1, PDZ protein (GST-PDZ fusion) (Homo sapiens, UniProt Q9P202).
T1 construct: made in house; host or cells: E. coli (DH5alpha, BL21 or JM109)
T1 sequence (Q9P202 1-907): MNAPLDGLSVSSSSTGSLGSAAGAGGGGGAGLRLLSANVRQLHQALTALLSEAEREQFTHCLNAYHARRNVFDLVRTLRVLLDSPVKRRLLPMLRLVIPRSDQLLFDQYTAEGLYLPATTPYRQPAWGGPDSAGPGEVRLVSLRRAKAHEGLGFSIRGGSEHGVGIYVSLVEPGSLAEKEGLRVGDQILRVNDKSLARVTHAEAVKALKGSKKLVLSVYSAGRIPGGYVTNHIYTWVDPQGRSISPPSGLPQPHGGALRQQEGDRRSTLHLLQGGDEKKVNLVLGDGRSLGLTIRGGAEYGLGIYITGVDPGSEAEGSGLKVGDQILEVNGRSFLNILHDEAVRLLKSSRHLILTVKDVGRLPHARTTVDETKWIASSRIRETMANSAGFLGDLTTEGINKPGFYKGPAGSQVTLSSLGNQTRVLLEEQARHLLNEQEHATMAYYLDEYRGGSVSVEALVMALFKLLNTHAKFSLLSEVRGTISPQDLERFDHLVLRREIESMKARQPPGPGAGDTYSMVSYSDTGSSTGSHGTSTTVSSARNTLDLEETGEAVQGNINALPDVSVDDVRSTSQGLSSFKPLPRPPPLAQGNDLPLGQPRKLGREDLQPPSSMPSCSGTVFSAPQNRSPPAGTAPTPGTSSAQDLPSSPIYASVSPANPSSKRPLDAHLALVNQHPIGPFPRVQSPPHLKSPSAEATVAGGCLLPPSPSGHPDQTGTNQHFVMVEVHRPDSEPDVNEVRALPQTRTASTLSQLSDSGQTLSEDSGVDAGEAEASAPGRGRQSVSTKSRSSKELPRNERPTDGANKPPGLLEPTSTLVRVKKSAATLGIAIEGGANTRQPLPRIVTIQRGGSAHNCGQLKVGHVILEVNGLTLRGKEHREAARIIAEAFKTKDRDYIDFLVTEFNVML
The assay is described as follows: G' assay (10 uM PL peptide), results of TABLE 7 and TABLE 12. To be noted: PDZ KIAA1526, PDZ Domain 1. Summed up: (§1)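 Binding classes derive from A450 nm of bound biotin-tagged PL peptide. A score of 5 needs A450 above 4 in more than two repeats.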

The target in assay [2] is T2, PDZ protein (GST-PDZ fusion) (Homo sapiens, UniProt O14907).
T2 construct: made in house; host or cells: E. coli (DH5alpha, BL21 or JM109)
T2 sequence (O14907 1-124): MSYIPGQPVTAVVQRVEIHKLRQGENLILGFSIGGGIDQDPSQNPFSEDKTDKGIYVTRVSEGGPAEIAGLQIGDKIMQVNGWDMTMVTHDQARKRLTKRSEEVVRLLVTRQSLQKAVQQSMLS
The assay is described as above. Conditions: PDZ TIP1, PDZ Domain 1. In outline: as §1

Assay [3] has as its target PDZ-domain polypeptide (GST/PDZ fusion protein). Kind of assay: Apparent affinity (Kd) by titration of PL peptide in the G assay. Summed up:
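A fixed concentration of GST/PDZ fusion protein, 5 ug/ml by default, was mixed in solution with increasing labeled PL peptide (e.g. 0.1 uM-1 mM). Reaction times ranged from 10 minutes to 2 days at 4-37° C. Complexes were separated from free peptide and detected via the label as in the G assay, apparent affinity coming from the saturating concentration.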

Where two headings read alike, the source gives them in different places. Ends that are not written are not given here. Peptide text beside a SMILES is read from it. * marks the point of attachment. Biotin = O=C1N[C@H]2[C@H](CS[C@H]2CCCCC(=O)*)N1

Consider `CC(C)C[C@H](NC(=O)[C@H](CCCNC(=N)N)NC(=O)CNC(=O)CNC(=O)[C@H](CCCNC(=N)N)NC(=O)[C@H](C)NC(=O)[C@@H]1CCCN1C(=O)[C@H](CCCNC(=N)N)NC(=O)CNC(=O)CNC(=O)[C@@H](NC(=O)[C@H](C)NC(=O)CCCC[C@@H]1SC[C@@H]2NC(=O)N[C@@H]21)C(C)C)C(=O)N[C@@H](CCC(N)=O)C(=O)NCC(=O)N[C@@H](CCCNC(=N)N)C(=O)N[C@@H](CCCNC(=N)N)C(=O)N[C@@H](CCC(N)=O)C(=O)N[C@H](C(=O)N[C@@H](CCC(N)=O)C(=O)N[C@H](C(=O)O)C(C)C)[C@@H](C)O` [HPV E6 58 (modified)] (Biotin-AVGGRPARGGRLQGRRQTQV-OH; C-terminus assumed), for which the Classification in assay [1] was 1 (A450 nm 0-1); in assay [2], 4 (A450 nm 3-4).

For the compound “PPATPSPRLALPAHHNATRL (Biotin-PPATPSPRLALPAHHNATRL) [Na+/Pi cotransporter 2]”, the Classification in assay [1] is listed as 1 (A450 nm 0-1).

Consider “ARHRVTSYTSSSVNVSSNL (Biotin-ARHRVTSYTSSSVNVSSNL) [IL-8RB]”, for which, in assay [2], the Classification is 1 (A450 nm 0-1).

Consider “A2AA_HUMAN (modified) (Biotin-HDFRRAFKKILARGDRKRIV; not fully specified)”, for which the Classification in assay [1] is on record as 4 (A450 nm 3-4).

As to `CC[C@H](C)[C@H](NC(=O)[C@H](Cc1c[nH]cn1)NC(=O)[C@H](C)NC(=O)[C@H](C)NC(=O)[C@H](CO)NC(=O)[C@@H]1CCCN1C(=O)[C@H](CCCNC(=N)N)NC(=O)[C@H](CC(=O)O)NC(=O)[C@H](CCCCN)NC(=O)[C@@H]1CCCN1C(=O)[C@H](CC(=O)O)NC(=O)[C@H](CCC(=O)O)NC(=O)CCCC[C@@H]1SC[C@@H]2NC(=O)N[C@@H]21)C(=O)N[C@H](C(=O)N[C@@H](CCC(=O)O)C(=O)N[C@@H](C)C(=O)N[C@@H](CC(C)C)C(=O)N[C@@H](CCC(=O)O)C(=O)N[C@H](C(=O)N[C@@H](CC(=O)O)C(=O)N[C@H](C(=O)O)C(C)C)[C@@H](C)O)C(C)C` [PDZ-binding kinase (PBK)] (Biotin-EDPKDRPSAAHIVEALETDV-OH; C-terminus assumed), the Classification in assay [2] was 1 (A450 nm 0-1).

In the case of `CC(C)C[C@H](NC(=O)[C@H](CC(C)C)NC(=O)[C@@H](NC(=O)[C@H](CC(=O)O)NC(=O)CCCC[C@@H]1SC[C@@H]2NC(=O)N[C@@H]21)[C@@H](C)O)C(=O)N[C@@H](CC(C)C)C(=O)N[C@H](C(=O)N[C@@H](CCC(=O)O)C(=O)N[C@@H](CC(N)=O)C(=O)N[C@@H](CCC(=O)O)C(=O)NCC(=O)N[C@@H](CC(=O)O)C(=O)N[C@@H](CCCCN)C(=O)N[C@H](C(=O)N[C@@H](CCC(=O)O)C(=O)N[C@@H](CCC(=O)O)C(=O)N[C@@H](CCC(N)=O)C(=O)N[C@H](C(=O)N[C@@H](CO)C(=O)N[C@@H](Cc1ccc(O)cc1)C(=O)N[C@H](C(=O)O)C(C)C)C(C)C)[C@@H](C)O)[C@@H](C)O` [5H2B_HUMAN] (Biotin-DTLLLTENEGDKTEEQVSYV-OH; C-terminus assumed), the Kd in assay [3] (PDZ BAI-1, PDZ Domain 3, read-out: Peptide Optimal Conc (Kd by titration of the PL peptide)) came out at 2000 nM.

For `CC(C)C[C@H](NC(=O)[C@H](C)NC(=O)[C@@H](NC(=O)[C@H](CCC(=O)O)NC(=O)[C@H](CCCNC(=N)N)NC(=O)[C@H](CCCNC(=N)N)NC(=O)CNC(=O)[C@H](CCC(N)=O)NC(=O)[C@H](CC(C)C)NC(=O)[C@H](CCCNC(=N)N)NC(=O)CNC(=O)CNC(=O)[C@H](CCCNC(=N)N)NC(=O)[C@H](C)NC(=O)[C@H](CO)NC(=O)[C@H](CCCNC(=N)N)NC(=O)CNC(=O)CNC(=O)[C@H](C)NC(=O)[C@H](C)NC(=O)CCCC[C@@H]1SC[C@@H]2NC(=O)N[C@@H]21)[C@@H](C)O)C(=O)O` [HPV E6 33 (modified)] (Biotin-AAGGRSARGGRLQGRRETAL-OH; C-terminus assumed), the Classification is given as 1 (A450 nm 0-1) in assay [1] and 5 (A450 nm of 4 more than 2× repeated) in assay [2].

In the case of “RNIEEVYVGGKQVVPFSSSV (Biotin-RNIEEVYVGGKQVVPFSSSV) [Nedasin (s-form)]”, the Classification in assay [2] is listed as 5 (A450 nm of 4 more than 2× repeated).

“PYSELNYETSHYPASPDSWV (Biotin-PYSELNYETSHYPASPDSWV) [catenin - delta 2]”: the Classification is 2 (A450 nm 1-2) in assay [1] and 3 (A450 nm 2-3) in assay [2].

As to “GPVPGEPAKPKTSAHHATFV (Biotin-GPVPGEPAKPKTSAHHATFV)”, the Classification in assay [2] is listed as 1 (A450 nm 0-1).

As to `CC[C@H](C)[C@H](NC(=O)[C@H](Cc1ccc(O)cc1)NC(=O)[C@H](CC(C)C)NC(=O)[C@H](CCC(N)=O)NC(=O)[C@H](Cc1c[nH]cn1)NC(=O)[C@H](CO)NC(=O)[C@H](C)NC(=O)[C@H](CC(C)C)NC(=O)[C@@H](NC(=O)[C@H](CC(=O)O)NC(=O)[C@H](CCSC)NC(=O)[C@H](Cc1ccccc1)NC(=O)[C@@H]1CCCN1C(=O)[C@H](CCCNC(=N)N)NC(=O)[C@@H](NC(=O)[C@H](CC(C)C)NC(=O)[C@H](CC(N)=O)NC(=O)[C@H](CC(=O)O)NC(=O)[C@@H](NC(=O)[C@H](CO)NC(=O)CCCC[C@@H]1SC[C@@H]2NC(=O)N[C@@H]21)[C@@H](C)O)C(C)C)[C@@H](C)O)C(=O)O` [presenilin-2] (Biotin-STDNLVRPFMDTLASHQLYI-OH; C-terminus assumed), in assay [3] (PDZ HEMBA 1003117, PDZ Domain 1, titration of the PL peptide, read-out: Peptide Optimal Conc (Kd, dissociation constant)), the Kd came to 4000 nM.

For `CC(C)C[C@H](NC(=O)[C@H](Cc1c[nH]c2ccccc12)NC(=O)[C@H](Cc1c[nH]cn1)NC(=O)[C@H](CCCNC(=N)N)NC(=O)[C@H](CC(C)C)NC(=O)[C@@H](NC(=O)[C@H](Cc1ccccc1)NC(=O)[C@H](CCC(N)=O)NC(=O)[C@H](CCCNC(=N)N)NC(=O)[C@@H](NC(=O)[C@H](CCC(=O)O)NC(=O)CNC(=O)[C@H](CCCNC(=N)N)NC(=O)[C@H](CC(=O)O)NC(=O)[C@@H](NC(=O)[C@H](CC(C)C)NC(=O)[C@H](CCC(=O)O)NC(=O)[C@H](CCCNC(=N)N)NC(=O)CCCC[C@@H]1SC[C@@H]2NC(=O)N[C@@H]21)C(C)C)C(C)C)[C@@H](C)O)C(=O)N[C@@H](CCCCN)C(=O)N[C@H](C(=O)O)C(C)C` [Dopamine transporter (Na+-dependent)] (Biotin-RELVDRGEVRQFTLRHWLKV-OH; C-terminus assumed), the Kd in assay [3] (PDZ HEMBA 1003117, PDZ Domain 1, read-out: Peptide Optimal Conc (Kd by titration of the PL peptide)) amounted to 300 nM.

Turning to `CC[C@H](C)[C@H](NC(=O)[C@H](CCC(N)=O)NC(=O)CCCC[C@@H]1SC[C@@H]2NC(=O)N[C@@H]21)C(=O)N[C@@H](CO)C(=O)N1CCC[C@H]1C(=O)NCC(=O)NCC(=O)N[C@@H](CC(C)C)C(=O)N[C@@H](CCC(=O)O)C(=O)N1CCC[C@H]1C(=O)N1CCC[C@H]1C(=O)N[C@@H](CO)C(=O)N[C@@H](CCC(=O)O)C(=O)N[C@@H](CCCCN)C(=O)N[C@@H](Cc1c[nH]cn1)C(=O)N[C@@H](Cc1ccccc1)C(=O)N[C@@H](CCCNC(=N)N)C(=O)N[C@@H](CCC(=O)O)C(=O)N[C@H](C(=O)N[C@@H](CCC(=O)O)C(=O)N[C@H](C(=O)O)C(C)C)[C@@H](C)O` [Tax], the Classification in assay [1] is on record as 3 (A450 nm 2-3).

Regarding `CC[C@H](C)[C@H](NC(=O)[C@H](CO)NC(=O)[C@@H](NC(=O)[C@H](Cc1ccccc1)NC(=O)[C@H](CO)NC(=O)CCCC[C@@H]1SC[C@@H]2NC(=O)N[C@@H]21)[C@@H](C)O)C(=O)N[C@@H](CC(C)C)C(=O)N[C@H](C(=O)N[C@@H](CS)C(=O)N[C@@H](Cc1c[nH]cn1)C(=O)N[C@@H](CCC(N)=O)C(=O)N[C@@H](CCCNC(=N)N)C(=O)N[C@@H](CCCNC(=N)N)C(=O)N[C@H](C(=O)N[C@@H](CCC(N)=O)C(=O)N[C@@H](CCCNC(=N)N)C(=O)N[C@@H](CCCCN)C(=O)N[C@@H](CCC(=O)O)C(=O)N[C@H](C(=O)N[C@H](C(=O)N[C@@H](C)C(=O)O)C(C)C)[C@@H](C)O)[C@@H](C)O)[C@@H](C)O` [GluR5-2 (rat)], the Kd in assay [3] (PDZ BAI-1, PDZ Domain 2, titration of the PL peptide, read-out: Peptide Optimal Conc (Kd, dissociation constant)) turned out to be 300 nM.

For CKR5_HUMAN (ERASSVYTRSTGEQEISVGL), in assay [2], the Classification is recorded as 1 (A450 nm 0-1).

Turning to “ELLQFCRTPNPALKNGQYWV (Biotin-ELLQFCRTPNPALKNGQYWV)”, the Classification in assay [2] is 1 (A450 nm 0-1).
